Laboratory results as given in article PMC6268968 (Molecules, 2012).

Target: T1, Acetylcholinesterase (Electrophorus electricus, UniProt O42275)
T1 construct: gene ache
Test: Ellman spectrophotometric assay (acetylthiocholine/DTNB, […] nm)
Format: biochemical

T1 sequence (O42275 24-633): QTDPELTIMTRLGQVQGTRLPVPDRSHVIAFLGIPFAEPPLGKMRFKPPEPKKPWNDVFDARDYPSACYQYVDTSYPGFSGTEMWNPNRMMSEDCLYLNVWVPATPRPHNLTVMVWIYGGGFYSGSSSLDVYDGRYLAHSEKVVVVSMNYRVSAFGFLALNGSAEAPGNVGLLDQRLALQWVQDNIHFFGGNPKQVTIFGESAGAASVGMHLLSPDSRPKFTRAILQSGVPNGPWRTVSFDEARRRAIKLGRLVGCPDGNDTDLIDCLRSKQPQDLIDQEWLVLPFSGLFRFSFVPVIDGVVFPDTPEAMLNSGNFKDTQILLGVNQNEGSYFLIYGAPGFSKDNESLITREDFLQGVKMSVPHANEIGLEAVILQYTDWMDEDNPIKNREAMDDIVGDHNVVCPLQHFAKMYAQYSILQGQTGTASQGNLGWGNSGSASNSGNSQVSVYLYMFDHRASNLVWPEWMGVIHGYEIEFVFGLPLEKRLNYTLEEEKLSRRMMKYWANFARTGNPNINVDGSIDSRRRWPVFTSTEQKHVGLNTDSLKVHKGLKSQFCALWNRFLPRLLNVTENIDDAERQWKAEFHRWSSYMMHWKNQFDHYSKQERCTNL

COc1cc(/C=C/C(=O)NCCc2ccc(O)cc2)ccc1O [compound 2, trans-N-feruloyltyramine]
IC50: 86 µM

O=C(/C=C/c1ccc(O)cc1)NCCc1ccc(O)cc1 [compound 1, trans-N-coumaroyltyramine]
IC50: 98.3 µM

O=C(/C=C/c1ccc(O)c(O)c1)NCCc1ccc(O)cc1 [compound 3, trans-N-caffeoyltyramine]
IC50: 84.3 µM
